{"source": "paper PMC3444172", "about": "(The Journal of organic chemistry, 2012)", "key": {"[1]": {"test_system": "B. subtilis lumazine synthase (recombinant β60 capsid)", "conditions": "previously reported compounds; cited from earlier work"}, "[2]": {"molecular_target": "T1, M. tuberculosis lumazine synthase (recombinant homopentameric) (Mycobacterium tuberculosis, UniProt P9WHE9)", "T1 sequence (P9WHE9 whole entry)": "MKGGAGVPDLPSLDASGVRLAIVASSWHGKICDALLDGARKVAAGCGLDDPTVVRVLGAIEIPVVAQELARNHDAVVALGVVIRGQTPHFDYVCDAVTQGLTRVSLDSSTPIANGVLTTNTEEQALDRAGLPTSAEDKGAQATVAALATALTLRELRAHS", "conditions": "previously reported compounds, cited from earlier work"}, "[3]": {"molecular_target": "baker's yeast riboflavin synthase", "conditions": "cited from earlier work"}, "[4]": {"molecular_target": "Ashbya gossypii riboflavin synthase", "conditions": "cited from earlier work"}, "[5]": {"molecular_target": "T2, E. coli riboflavin synthase (recombinant) (Escherichia coli, UniProt P0AFU8)", "T2 sequence (P0AFU8 whole entry)": "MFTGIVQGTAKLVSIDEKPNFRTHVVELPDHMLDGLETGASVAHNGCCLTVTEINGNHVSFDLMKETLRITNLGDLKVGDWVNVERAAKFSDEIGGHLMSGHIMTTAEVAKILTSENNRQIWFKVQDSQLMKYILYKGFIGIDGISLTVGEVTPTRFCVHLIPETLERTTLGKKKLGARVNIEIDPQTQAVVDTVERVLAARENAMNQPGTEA", "conditions": "previously reported compounds, cited from earlier work"}, "[6]": {"molecular_target": "T1, M. tuberculosis lumazine synthase (recombinant homopentameric)", "format": "biochemical"}, "[7]": {"molecular_target": "T3, S. pombe lumazine synthase (recombinant homopentameric) (Schizosaccharomyces pombe, UniProt Q9UUB1)", "T3 sequence (Q9UUB1 1-159)": "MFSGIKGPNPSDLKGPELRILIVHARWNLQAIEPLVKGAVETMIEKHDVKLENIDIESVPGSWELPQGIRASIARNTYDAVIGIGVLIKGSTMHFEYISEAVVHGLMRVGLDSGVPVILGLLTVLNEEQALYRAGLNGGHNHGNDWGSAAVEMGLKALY", "experiment": "Kinetic assay of lumazine synthase inhibitors, S. pombe enzyme", "format": "biochemical"}, "[8]": {"molecular_target": "T2, E. coli riboflavin synthase (recombinant)", "experiment": "Kinetic assay of riboflavin synthase inhibitors, E. coli enzyme", "format": "biochemical"}, "[9]": {"molecular_target": "M. tuberculosis riboflavin synthase (recombinant) (Mycobacterium tuberculosis, UniProt P9WK35)", "sequence (P9WK35 whole entry)": "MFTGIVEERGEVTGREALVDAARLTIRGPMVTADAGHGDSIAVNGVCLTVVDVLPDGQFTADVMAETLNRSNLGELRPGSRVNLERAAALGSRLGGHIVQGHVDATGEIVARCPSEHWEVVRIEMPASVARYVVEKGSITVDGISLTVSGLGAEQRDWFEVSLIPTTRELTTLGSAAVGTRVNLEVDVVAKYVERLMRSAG", "experiment": "Kinetic assay of riboflavin synthase inhibitors, M. tuberculosis enzyme", "format": "biochemical"}, "[10]": {"conditions": "substrate 2 constant, substrate 1 varied, Tris·HCl pH 7.0"}, "[11]": {"conditions": "substrate 3 varied, Tris·HCl pH 7.0"}}, "note": "Where two headings read alike, the source gives them in different places."}
{"smiles": "O=c1[nH]c(=O)c2[nH]c(=O)c(=O)n(C[C@H](O)[C@H](O)[C@H](O)CO)c2[nH]1", "note": "[Compound 81, 6,7-dihydro-6,7-dioxo-8-ribityllumazine]", "values": [{"measurement": "Mechanism of inhibition", "setting": "[1]", "value": "Competitive"}, {"measurement": "Kcat (rate constant ES → E + P)", "setting": "[2]; Tris·HCl pH 7.0", "value": "1.1 ± 0.1", "unit": "m^−1"}, {"measurement": "Mechanism of inhibition", "setting": "[2]", "value": "Competitive"}, {"measurement": "Ki", "setting": "[3]", "value": 25, "unit": "nM"}, {"measurement": "Ki", "setting": "[4]", "value": 9, "unit": "nM"}, {"measurement": "Kcat (rate constant ES → E + P)", "setting": "[5]; Tris·HCl pH 7.0", "value": "15 ± 0", "unit": "m^−1"}, {"measurement": "Mechanism of inhibition", "setting": "[5]", "value": "Competitive"}]}
{"smiles": "COC(=O)C(=O)Nc1c(OC[C@H](O)[C@H](O)[C@H](O)CO)[nH]c(=O)[nH]c1=O", "note": "[Compound 37, Methyl 2-(2,4-dioxo-6-((2S,3R,4R)-2,3,4,5-tetrahydroxypentyloxy)1,2,3,4-tetrahydropyrimidin-5-ylamino)-2-oxoacetate]", "values": [{"measurement": "Mechanism of inhibition", "setting": "[6]", "value": "Competitive"}, {"measurement": "Kcat (rate constant ES → E + P)", "setting": "[6]; pH 7", "value": "0.18 ± 0.00", "unit": "m^−1"}, {"measurement": "Ks (substrate dissociation constant, E + S ⇌ ES)", "setting": "[6]; [10]", "value": "29 ± 2", "unit": "µM"}, {"measurement": "Mechanism of inhibition", "setting": "[7]", "value": "Partial"}, {"measurement": "Kcat (rate constant ES → E + P)", "setting": "[7]; [10]", "value": "1.5 ± 0.0", "unit": "m^−1"}, {"measurement": "Kis (ES + I ⇌ ESI)", "setting": "[7]; [10]", "value": "56 ± 15", "unit": "µM"}, {"measurement": "Ks (substrate dissociation constant, E + S ⇌ ES)", "setting": "[7]; [10]", "value": "1.7 ± 0.2", "unit": "µM"}, {"measurement": "Mechanism of inhibition", "setting": "[8]", "value": "Uncompetitive"}, {"measurement": "Kcat (rate constant ES → E + P)", "setting": "[8]; [11]", "value": "3.4 ± 0.1", "unit": "m^−1"}, {"measurement": "Kis (ES + I ⇌ ESI)", "setting": "[8]; [11]", "value": ">1000", "unit": "µM"}, {"measurement": "Ks (substrate dissociation constant, E + S ⇌ ES)", "setting": "[8]; [11]", "value": "3.1 ± 0.2", "unit": "µM"}, {"measurement": "Mechanism of inhibition", "setting": "[9]", "value": "Uncompetitive"}, {"measurement": "Kcat (rate constant ES → E + P)", "setting": "[9]; [11]", "value": "0.22 ± 0.01", "unit": "m^−1"}, {"measurement": "Ki (E + I ⇌ EI)", "setting": "[9]; [11]", "value": 868000, "unit": "nM"}, {"measurement": "Kis (ES + I ⇌ ESI)", "setting": "[9]; [11]", "value": "868 ± 305", "unit": "µM"}, {"measurement": "Ks (substrate dissociation constant, E + S ⇌ ES)", "setting": "[9]; [11]", "value": "4.1 ± 0.4", "unit": "µM"}]}
